Several values for one entry are separate records, joined by “and”; a condition that tells them apart may be missing. Identical values can stand only once. Activity calls are given as the source filed them. How the calls were made is not given here.
Test system: rodent lifetime carcinogenesis bioassay, tumor incidence TD50
Assay: chronic cancer bioassays in animals – CPDB, compiled studies (AID 1745844)
Conditions: in feed

Cc1ccccc1N
TD50 (mouse, strain B6C3F1, females, site: any site (literature study), lesion: several types, types named in the paper, dosed 102 weeks, study length 102 weeks): 1350 mg/kg/day | TD50 (mouse, strain B6C3F1, females, site: liver, lesion: hepatocellular adenoma + hepatocellular carcinoma + neoplastic nodule, dosed 102 weeks, study length 102 weeks): 754 mg/kg/day | TD50 (mouse, strain B6C3F1, females, site: liver, lesion: hepatocellular adenoma + hepatocellular carcinoma, dosed 102 weeks, study length 102 weeks): 754 mg/kg/day | TD50 (mouse, strain B6C3F1, females, site: liver, lesion: hepatocellular carcinoma, dosed 102 weeks, study length 102 weeks): 1520 mg/kg/day | TD50 (mouse, strain B6C3F1, males, site: all sites, lesion: hemangioma + hemangiosarcoma, dosed 102 weeks, study length 102 weeks): 926 mg/kg/day | TD50 (mouse, strain B6C3F1, males, site: all sites, lesion: hemangiosarcoma, dosed 102 weeks, study length 102 weeks): 1220 mg/kg/day | TD50 (mouse, strain B6C3F1, males, site: liver, lesion: hepatocellular adenoma + hepatocellular carcinoma + neoplastic nodule, dosed 102 weeks, study length 102 weeks): 12700 mg/kg/day | TD50 (mouse, strain CD-1 HaM/ICR, females, site: all sites, lesion: all vascular tumors, dosed 68 weeks, study length 90 weeks): 1240 mg/kg/day | TD50 (mouse, strain CD-1 HaM/ICR, females, site: any site (literature study), lesion: several types, types named in the paper, dosed 68 weeks, study length 90 weeks): 699 mg/kg/day | TD50 (mouse, strain CD-1 HaM/ICR, females, site: liver, lesion: several types, types named in the paper, dosed 68 weeks, study length 90 weeks): 1650 mg/kg/day (inactive) | carcinogen call (mouse, strain CD-1 HaM/ICR, females, site: lung, lesion: several types, types named in the paper, dosed 68 weeks, study length 90 weeks): negative (inactive) | TD50 (mouse, strain CD-1 HaM/ICR, males, site: all sites, lesion: all vascular tumors, dosed 68 weeks, study length 90 weeks): 646 mg/kg/day and 660 mg/kg/day | TD50 (mouse, strain CD-1 HaM/ICR, males, site: any site (literature study), lesion: several types, types named in the paper, dosed 68 weeks, study length 90 weeks): 325 mg/kg/day | TD50 (mouse, strain CD-1 HaM/ICR, males, site: liver, lesion: several types, types named in the paper, dosed 68 weeks, study length 90 weeks): 1400 mg/kg/day (inactive) | TD50 (mouse, strain CD-1 HaM/ICR, males, site: lung, lesion: several types, types named in the paper, dosed 68 weeks, study length 90 weeks): 1160 mg/kg/day (inactive) | TD50 (rat, strain Charles River CD (Sprague-Dawley), males, site: any site (literature study), lesion: several types, types named in the paper, dosed 64 weeks, study length 68 weeks): 36.1 mg/kg/day | TD50 (rat, strain Charles River CD (Sprague-Dawley), males, site: liver, lesion: several types, types named in the paper, dosed 64 weeks, study length 68 weeks): 2960 mg/kg/day (inactive) | TD50 (rat, strain Charles River CD (Sprague-Dawley), males, site: subcutaneous tissue, lesion: several types, types named in the paper, dosed 64 weeks, study length 68 weeks): 36.7 mg/kg/day and 38.8 mg/kg/day | TD50 (rat, strain Charles River CD (Sprague-Dawley), males, site: urinary bladder, lesion: several types, types named in the paper, dosed 64 weeks, study length 68 weeks): 131 mg/kg/day | TD50 (rat, strain Fischer 344, females, site: any site (literature study), lesion: several types, types named in the paper, dosed 104 weeks, study length 104 weeks): 75.8 mg/kg/day | TD50 (rat, strain Fischer 344, females, site: mammary gland + multiple organs + spleen + urinary bladder, lesion: adenoma, NOS + fibroadenoma + angiosarcoma + fibrosarcoma + osteosarcoma + sarcoma, NOS + transitional-cell carcinoma + transitional-c, dosed 104 weeks, study length 104 weeks): 77.9 mg/kg/day | TD50 (rat, strain Fischer 344, females, site: mammary gland, lesion: adenoma, NOS + fibroadenoma, dosed 104 weeks, study length 104 weeks): 119 mg/kg/day | TD50 (rat, strain Fischer 344, females, site: mammary gland, lesion: fibroadenoma, dosed 104 weeks, study length 104 weeks): 115 mg/kg/day | TD50 (rat, strain Fischer 344, females, site: multiple organs, lesion: angiosarcoma + fibrosarcoma + osteosarcoma + sarcoma, NOS, dosed 104 weeks, study length 104 weeks): 332 mg/kg/day | TD50 (rat, strain Fischer 344, females, site: multiple organs, lesion: osteosarcoma, dosed 104 weeks, study length 104 weeks): 423 mg/kg/day | TD50 (rat, strain Fischer 344, females, site: spleen, lesion: angiosarcoma + osteosarcoma + sarcoma, NOS, dosed 104 weeks, study length 104 weeks): 337 mg/kg/day | TD50 (rat, strain Fischer 344, females, site: spleen, lesion: angiosarcoma, dosed 104 weeks, study length 104 weeks): 450 mg/kg/day | TD50 (rat, strain Fischer 344, females, site: urinary bladder, lesion: transitional-cell carcinoma + transitional-cell papilloma, dosed 104 weeks, study length 104 weeks): 175 mg/kg/day | TD50 (rat, strain Fischer 344, females, site: urinary bladder, lesion: transitional-cell carcinoma, dosed 104 weeks, study length 104 weeks): 185 mg/kg/day | TD50 (rat, strain Fischer 344, males, site: any site (literature study), lesion: several types, types named in the paper, dosed 102 weeks, study length 104 weeks): 24.4 mg/kg/day | TD50 (rat, strain Fischer 344, males, site: liver, lesion: hepatocellular adenoma + hepatocellular carcinoma + neoplastic nodule, dosed 102 weeks, study length 104 weeks): 645 mg/kg/day | TD50 (rat, strain Fischer 344, males, site: liver, lesion: several types, types named in the paper, dosed 72 weeks, study length 93 weeks): 1000 mg/kg/day | TD50 (rat, strain Fischer 344, males, site: mammary tissue, wider than the gland, lesion: fibroadenoma, dosed 72 weeks, study length 93 weeks): 149 mg/kg/day | TD50 (rat, strain Fischer 344, males, site: multiple organs + spleen + subcutaneous tissue + tunica vaginalis, lesion: angiosarcoma + fibrosarcoma + mesothelioma + osteosarcoma + sarcoma, NOS + fibroma, dosed 102 weeks, study length 104 weeks): 23.3 mg/kg/day | TD50 (rat, strain Fischer 344, males, site: multiple organs + tunica vaginalis, lesion: mesothelioma, dosed 102 weeks, study length 104 weeks): 97.4 mg/kg/day | TD50 (rat, strain Fischer 344, males, site: multiple organs, lesion: angiosarcoma + fibrosarcoma + osteosarcoma + sarcoma, NOS, dosed 102 weeks, study length 104 weeks): 93.2 mg/kg/day | TD50 (rat, strain Fischer 344, males, site: multiple organs, lesion: fibrosarcoma, dosed 102 weeks, study length 104 weeks): 184 mg/kg/day | TD50 (rat, strain Fischer 344, males, site: multiple organs, lesion: sarcoma, NOS, dosed 102 weeks, study length 104 weeks): 394 mg/kg/day | TD50 (rat, strain Fischer 344, males, site: peritoneal cavity, lesion: spindle-cell sarcoma, dosed 72 weeks, study length 93 weeks): 190 mg/kg/day | TD50 (rat, strain Fischer 344, males, site: skin, lesion: fibroma, dosed 72 weeks, study length 93 weeks): 38.7 mg/kg/day | TD50 (rat, strain Fischer 344, males, site: spleen, lesion: fibroma, dosed 72 weeks, study length 93 weeks): 167 mg/kg/day | TD50 (rat, strain Fischer 344, males, site: spleen, lesion: fibroma, dosed 102 weeks, study length 104 weeks): 134 mg/kg/day | TD50 (rat, strain Fischer 344, males, site: subcutaneous tissue, lesion: fibroma, dosed 102 weeks, study length 104 weeks): 33.3 mg/kg/day | TD50 (rat, strain Fischer 344, males, site: urinary bladder, lesion: several types, types named in the paper, dosed 72 weeks, study length 93 weeks): 474 mg/kg/day

Source: PubChem BioAssay AID1745844 (Carcinogenic Potency Database (CPDB), 2022)
